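A five-concentration, 48-hour dose response in 96-well plates underlies each endpoint, interpolated linearly between surrounding concentrations. TGI marks complete inhibition of growth.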 Where a SMILES comes first, the peptide text is derived from it. [ ]: non-standard residue; d: D form. The star is where a group is joined. X28 = COC1=CC(=O)N(C(=O)[C@@H](O*)C(C)C)[C@H]1Cc1ccccc1; Bn2Val = CC(C)[C@@H](C(=O)*)N(Cc1ccccc1)Cc1ccccc1; NMeV = CN[C@H](C(=O)O)C(C)C; dNMeA = CN[C@H](C)C(=O)O
Assays:
Experiment in all cases: growth of human tumour cells (NCI), 48 h
786-0 renal = system: 786-0 renal
CAKI-1 renal = system: CAKI-1 renal
DU-145 prostate = system: DU-145 prostate
K-562 leukemia = system: K-562 leukemia
MALME-3M melanoma = system: MALME-3M melanoma
MDA-N = system: MDA-N
RPMI-8226 leukemia = system: RPMI-8226 leukemia
SF-268 CNS = system: SF-268 CNS
T-47D breast = system: T-47D breast
U251 CNS = system: U251 CNS
UACC-257 melanoma = system: UACC-257 melanoma

| Structure (SMILES) | TGI (786-0 renal) [µM] | TGI (CAKI-1 renal) [µM] | TGI (DU-145 prostate) [µM] | TGI (K-562 leukemia) [µM] | TGI (MALME-3M melanoma) [µM] | TGI (MDA-N) [µM] | TGI (RPMI-8226 leukemia) [µM] | TGI (SF-268 CNS) [µM] | TGI (T-47D breast) [µM] | TGI (U251 CNS) [µM] | TGI (UACC-257 melanoma) [µM] |
| --- | --- | --- | --- | --- | --- | --- | --- | --- | --- | --- | --- |
| C/C(=N/NC(=S)N(C)C)c1ccccc1O | > 100 | > 100 | > 100 | > 100 | > 76.1 | > 100 | > 100 | > 38.2 | > 85.8 | > 100 | 63.4 |
| COc1ccc(C(=O)c2c(-c3ccccc3NC(=O)C(F)(F)F)[nH]c3ccccc23)cc1 |  | 28.6 | 17 | 32.7 | 30.5 | 29.3 | 27.2 | 28.7 | 9.05 | 7.17 | 29.9 |
| COc1cc(S(=O)(=O)Nc2ccc(-c3csc(N4C(=O)C(Cl)C4c4cccc(Oc5ccccc5)c4)n3)cc2)ccc1Cl (stereo not drawn) | 26.5 | 41.8 | 52.1 | 91.2 | > 100 | 64.7 | > 100 | 28.3 | 41.9 |  | > 100 |
| O=S(c1ccccc1)C1CC2CC3(CCC21O)OCCO3 (stereo not drawn) | > 100 | > 100 | > 100 | > 100 | > 100 | > 100 | > 100 | > 100 | > 100 | > 100 | > 100 |
| CCNC(=O)NNc1ncnc2c1c(-c1ccc(Cl)cc1)cn2-c1ccc(C)cc1 | 32.8 | 51.1 | 44.9 | 46.5 | 35.5 | 36.8 |  | 39 | 49.6 | 31.3 | 35.7 |
| CCOC(=O)C1(C#N)C2(C#N)C(N)=NC(ON=C(C)C)(ON=C(C)C)C12C#N (stereo not drawn) | > 100 | > 100 | > 100 | > 100 | > 100 | > 100 | > 100 | > 100 | > 100 | > 100 | > 100 |
| CCCCCCCCCC(O)CC(=O)c1c(O)cccc1O (stereo not drawn) | 50.4 | 44 | > 100 | 49.5 | 32.3 | 51.6 | 45.2 | 35.9 | 71.5 | > 100 | 38.7 |
| CC(C(=O)NCCNC(=O)CCC(=O)N(C)O)C(=O)NCCNC(=O)CCC(=O)N(C)O |  | > 100 | > 100 | > 100 | > 100 | > 100 | > 100 | > 100 | > 100 | > 100 | > 100 |
| CSc1c2c(C)n[nH]c2nn1-c1ccccc1 | > 100 | 87.4 | > 100 | > 100 | > 100 | > 100 | > 100 | > 100 | > 100 | > 100 | > 100 |
| c1ccc(C(c2cccc3c2ccc2ccccc23)C(c2ccccc2)c2cccc3c2ccc2ccccc23)cc1 (stereo not drawn) | > 100 | > 100 | > 100 | > 100 | > 100 | > 100 | > 100 | > 100 | > 100 | > 100 | > 100 |
| Nc1ncnc2c1ncn2C1OC(CO)C(O)C1NS(=O)(=O)c1ccccc1 (stereo not drawn) | > 100 | > 100 | > 100 | > 100 | > 100 | > 100 | > 100 | > 100 | > 100 | > 100 | > 100 |
| CC(C)(C)c1cc(C(=O)C2Cc3ccccc3C(=O)O2)cc(C(C)(C)C)c1O (stereo not drawn) | 24.8 | 52.5 | 28.3 | > 100 | 29.6 | 23.9 | 42.1 | 40.6 | > 100 | 22.2 | 23.9 |
| CC(=O)NNc1nc(C)c(C(/C=C/c2ccc([N+](=O)[O-])cc2)=N/NC(N)=O)s1 | > 100 | > 100 | > 100 | > 100 | > 100 | > 100 | > 100 | > 100 | > 100 | > 100 | > 100 |
| NC(=S)Nc1ccc2c(c1)oc1ccccc12 | > 100 | > 100 | > 100 | > 100 | > 100 | > 100 | > 100 | > 100 | > 100 | > 100 | > 100 |
| C=CCOC(=O)c1c(C)n([O-])c2cc(Cl)c(Cl)cc2[n+]1=O | 60.1 | 39.6 | > 100 | > 100 | 70.9 | 45.6 | 33.9 | 29.5 | 49.3 | > 100 | 37.9 |
| CCCCC(=C=C(C)CO)C1CCCN1C(=O)OC(C)(C)C (stereo not drawn) | 30.5 | 61.5 | 34.1 | 38.4 | 28.2 | 34.2 | 36.8 | 33.5 | > 100 | 31.7 | 32.7 |

| Structure (SMILES) | TGI (786-0 renal) [µM] | TGI (CAKI-1 renal) [µM] | TGI (DU-145 prostate) [µM] | TGI (K-562 leukemia) [µM] | TGI (MALME-3M melanoma) [µM] | TGI (MDA-N) [µM] | TGI (RPMI-8226 leukemia) [µM] | TGI (SF-268 CNS) [µM] | TGI (T-47D breast) [µM] | TGI (U251 CNS) [µM] | TGI (UACC-257 melanoma) [µM] |
| --- | --- | --- | --- | --- | --- | --- | --- | --- | --- | --- | --- |
| COC1=CC(=O)N(C(=O)[C@@H](OC(=O)[C@@H](C)N(C)C(=O)[C@@H]2CCCN2C(=O)[C@H](C(C)C)N(C)C(=O)[C@@H](NC(=O)[C@H](C(C)C)N(Cc2ccccc2)Cc2ccccc2)C(C)C)C(C)C)[C@H]1Cc1ccccc1 (Bn2Val-V[NMeV]P[dNMeA]-X28) | > 100 | > 100 | > 100 | > 100 | > 100 | > 100 | > 100 | > 100 | > 100 | > 100 | > 100 |
| CC1(C)Oc2ccc3c(=O)cc(-c4cccs4)oc3c2C1C(=O)O (stereo not drawn) | > 100 | 60.4 | > 100 | > 100 | > 100 | > 100 |  | > 100 | > 100 | > 100 | > 100 |
| N/C(=N\S(=O)(=O)c1ccc(-c2ccccn2)s1)Nc1ccc(Cl)cc1 | 29.4 | 24.9 | 34.3 | 66.2 | 33.4 | 19.6 | 84.5 | 36.6 | 45.6 | 28.6 | 21.1 |
| CC(=O)NNC(=S)/N=C\c1c(O)c2ccccc2oc1=O | > 100 | > 100 | > 100 | > 100 | > 100 | > 100 | > 100 | > 100 | > 100 | > 100 | > 100 |
| N#C/C=c1/c2ccccc2n2nc3ccccc3c12 | 19.8 | > 100 | > 100 | > 100 | > 100 | > 100 | > 100 | 34 | > 100 | 30.9 | > 100 |
| COc1ccc(OC)c(NC2=NCCO2)c1 | > 100 | 28.8 | > 100 | > 100 | > 100 | > 100 | > 100 | > 100 | > 100 | > 100 | > 100 |
| N#CCCN(CCC#N)c1ccc(/C=C2\SC(=S)NC2=O)cc1 | > 100 | 59.7 | > 100 | > 100 | > 100 | > 100 | > 100 | > 100 | > 100 | 47 | > 100 |
| O=C(/C=C/c1ccc2c(c1)OCO2)NCCc1ccco1 |  | > 100 | > 100 | > 100 | > 100 | > 100 | 99.1 | > 100 | > 100 | > 100 | > 100 |
| O=C(OCC1CCCN2CCCCC12)c1cccnc1 (stereo not drawn) | > 100 | > 100 | > 100 | > 100 | > 100 | > 100 | > 100 | > 100 | > 100 | > 100 | > 100 |
| COC1=CC(=O)c2c(cc(COP(N)(=O)N(CCCl)CCCl)n2C)C1=O (stereo not drawn) | 10.9 | < 0.0478 | 5.71 | 36.9 | 3.15 | 4.09 | 4.73 | 2.34 | 4.29 | 6.77 | 14.2 |
| Oc1cc(Cl)cc2cc(Cl)cnc12 | > 100 | 57.7 | > 100 | 10.6 | 34.9 | > 100 | 12.2 | > 100 | 9.95 | > 100 | > 100 |
| C=C1C(=O)[C@]23C[C@H]1C[C@@H](O)[C@H]2[C@]1(COC3=O)[C@@H](OC(C)=O)CC[C@@](C)(COC(C)=O)[C@H]1C=O | > 50 | 18.8 | > 50 | 14.1 | 27 | > 50 |  | 43.5 | 25.4 | > 50 | > 50 |
| COC(=O)c1ccccc1NC(=S)NN(C)C | > 100 | > 100 | > 100 | > 100 | > 100 | > 100 | > 100 |  | > 100 | > 100 | > 100 |
| COC(=O)CCCC1(CCCC(=O)OC)CCCCCCCCC(CCCC(=O)OC)(CCCC(=O)OC)C(=O)C1=O | 33.5 | 24.4 | > 100 | 37.8 | 60.1 | > 100 | > 100 | 55.3 | > 100 | 40.7 | > 100 |
| C[C@@H](NC(=O)[C@@H]1C[C@]1(C)CO)c1cccc2ccccc12 | > 100 | > 100 | > 100 | > 100 | > 100 | > 100 | > 100 | > 100 | > 100 | > 100 | > 100 |
